# Experimental data taken from patent US7951772B2, “Tumor-activated prodrug compounds and treatment” (La Region Wallonne, priority 1994, dated 2011).
# What was measured:
# [1] = system: conditioned medium from anthracycline-resistant MCF7 cells (MCF7/ADR line); test: Degradation in conditioned medium from MCF7/ADR mammary carcinoma cells; format: in vitro ADME, human; conditions: 37 C, 1 hour
# [2] = system: conditioned medium from MCF7/6 mammary carcinoma cells; test: Degradation in conditioned medium from MCF7/6 mammary carcinoma cells (HPLC); conditions: share of each species by HPLC
# [3] = system: MCF7/6 human mammary carcinoma cells; test: Cytotoxicity with respect to MCF7/6 tumor cells (72 h, Bradford protein); conditions: MCF7/6 cells
# Protocol: (§7) After 72 hours, the cells are incubated for 48 hours in the absence of anthracycline, and the cytotoxicity is determined by measuring the cellular proteins by Bradford's technique. […] The experimental points are adjusted to a sigmoid curve which enables the point of inflection, corresponding to the dose at which half of the cells survive (IC50), to be calculated.
# (§8) After 72 hours, the cells are incubated for 48 hours in the absence of the anthracycline, and the cytotoxicity is determined by measuring the cellular proteins by Bradford's technique. […] The experimental points are adjusted to a sigmoid curve which enables the point of inflection, corresponding to the dose at which half of the cells survive (IC50), to be calculated.
# [4] = system: MCF7/6 human mammary carcinoma cells; test: Accumulation in MCF7/6 tumor cells (HPLC of cell extracts)
# Protocol: After various times, the accumulation of the prodrugs and of their fluorescent metabolites were determined by HPLC after extraction of the products at basic pH according to a method developed in the laboratory. Accumulations, expressed in μg/mg of cellular proteins, were compared with those of DNR and of DOX as well as with those of L-Leu-DNR and L-Leu-DOX. The metabolites were identified by determining the retention times of reference products synthesized in the laboratory.
# (§9) After various times, the accumulation of the prodrugs and of their fluorescent metabolites was determined by HPLC after extraction of the products at basic pH according to a method developed in the laboratory. Accumulations, expressed in μg/mg of cellular proteins, were compared with those of DOX and of L-Leu-DOX. The metabolites were identified by determining the retention times of reference products synthesized in the laboratory.
# female NMRI mice [5] = test: In vivo acute toxicity, intravenous route; parameters: species or system mouse; conditions: i.v., total dose of 60 mg/kg as two injections of 30 mg/kg on two consecutive days
# female NMRI mice [6] = test: In vivo acute toxicity, intravenous route; parameters: species or system mouse; weight increase of the 3 surviving mice: dose or concentration left out as unconfirmed; conditions: i.v.; for mice dying: groups of 5
# Protocol: (§1) In the in vivo study of the acute toxicity of a medicinal product, determination of the median lethal dose (lethal dose for 50% of the animals or LD50) occupies an important place. […] The LD50 is a simple test in which increasing amounts of the test product are administered intravenously (i.v.) in a single injection and intraperitoneally (i.p.) in 5 injections, one injection daily for 5 consecutive days. The mortality of the animals is monitored as a function of time. At the end of the observation period, usually 30 days, the value of the LD50 is obtained by linear regression of the percentage mortality (on a probit scale) as a function of the logarithm of the dose administered (O. K. Chan and A. W. Hayes, Principles and methods for acute toxicity and eye irritancy, in Principles and methods of toxicology, Second edition. Ed. by A. W. Hayes, Raven Press, New York, USA (1989), pp. 169-220; D. Deprez-De Campeneere and A. Trouet. DNA-Anthracycline Complexes. I. Toxicity in mice and chemotherapeutic activity against L1210 Leukaemia off Daunorubicin-DNA and Adriamycin-DNA, Eur. J. Cancer, 16 (1980), pp. 981-986; H. E. Skipper, L. H. Schmidt, A. Goldin and J. M. Venditti. A manual on quantitative drug evaluation in experimental tumor systems, Cancer Chemother. Rep. 17 (1.962), pp. 1-178).
# (§2) The acute toxicity of these two drugs was studied via the i.v. and i.p. routes on a single strain of mouse. Female NMRI mice (nonconsanguineous SPF-Han, approximately 5 weeks old and of mean weight 14.6 grams, supplied by IFFA-CREDO Belgium) remained in quarantine for one week.
# (§3) Injections were performed systematically in the morning (single injection into the caudal vein for the i.v. route and injections on 5 consecutive days into the peritoneum for the i.p. route), using 1.0 ml syringes and sterile 30 G (i.v.) and 27 G (i.p) needles. All handling of animals was performed with gloves, and maintenance of the animals was performed systematically every week.
# (§4) DNR was injected i.v. at doses of 10, 15, 20, 25, 30 and 35 mg/kg and i.p. at doses of 2.0; 2.5; 3.0 and 3.5 mg/kg.
# (§5) The concentrations of the solutions were verified by spectrophotometry.
# (§6) From the day of injection (DO) onwards, the mice were monitored clinically, with a daily record of dead mice. The weight of the mice was measured almost every day. The observation period was extended beyond one month so that the signs of late toxicity could be spotted more readily. At the end of the study, the surviving mice were sacrificed, according to the standards pertaining to animal experiments (D. B. McGregor. Ethics in experiments on animals, in Experiments in toxicology, First edition. Ed. by D. Anderson and D. M. Conning. The Royal Society of Chemistry and The Universities Press. Belfast, Ireland (1988), pp. 512-522).
# [7] = Degradation in human blood at 37 C
# MRC5 fibroblast cells [8] = test: Cytotoxicity with respect to MRC5 normal cells (72 h, Bradford protein); conditions: MRC5 cells
# Protocol: as §7, §8
# MRC5 fibroblast cells [9] = test: Accumulation in MRC5 normal fibroblast cells (HPLC of cell extracts)
# Protocol: At various times, the accumulation of the prodrugs and of their fluorescent metabolites was determined by HPLC after extraction of the products at basic pH according to a method developed in the laboratory. Accumulations, expressed in μg/mg of cellular proteins, were compared with those of DNR and of L-Leu-DNR. The metabolites were identified by determining the retention times of reference products synthesized in the laboratory.
# as §9
# female NMRI mice [10] = test: In vivo acute toxicity, intraperitoneal route, 5 consecutive days; parameters: species or system mouse; conditions: for mortality: i.p. 5 consecutive days
# Protocol: as §1, §2, §3, §4, §5, §6
# [11] = 72 hours with compound then 48 hours without
# [12] = MCF7/6 cells, 6 hours of incubation, 10 μg eq. DNR/ml
# [13] = MRC5 cells, 6 hours of incubation, 10 μg eq. DNR/ml
smiles,measurement,setting,value
"COc1cccc2c1C(=O)c1c(O)c3c(c(O)c1C2=O)C[C@@](O)(C(C)=O)C[C@@H]3O[C@H]1C[C@H](NC(=O)[C@H](CC(C)C)NC(=O)[C@H](C)NC(=O)[C@H](CC(C)C)NC(=O)CCN)[C@H](O)[C@H](C)O1 [β-Ala-Leu-Ala-Leu-DNR, β-alanyl-L-leucyl-L-alanyl-L-leucyldaunorubicin]",metabolite found,[1],the only metabolite now to be found is L-Leu-DNR
same,"Starting material or Metabolite, Time 0","[2]; β-Ala-Leu-Ala-Leu-DNR incubated at 37 C in MCF7/6 conditioned medium concentrated 20 of 40 times, time 0",100%
same,"Starting material or Metabolite, After 1 hour","[2]; β-Ala-Leu-Ala-Leu-DNR incubated at 37 C in MCF7/6 conditioned medium, 1 hour",10%
same,"Starting material or Metabolite, After 2 hours","[2]; β-Ala-Leu-Ala-Leu-DNR incubated at 37 C in MCF7/6 conditioned medium, 2 hours",2.6%
same,times less cytotoxic than DNR,[3]; 72 hours,244 times
same,IC50,[3]; [11],22.00 ± 7.31 mg/L
same,level of accumulation (unchanged form),"[4]; MCF7/6 cells, 10 μg eq. DNR/ml, 24 hours of incubation",~1 μg/mg of cellular proteins
same,"Intracellular concentration, DNR formed",[4]; [12],0.9 μg/mg cellular proteins
same,"Intracellular concentration, Leu-DNR formed",[4]; [12],4.5 μg/mg cellular proteins
same,"Intracellular concentration, Starting material",[4]; [12],0.3 μg/mg cellular proteins
same,"DNR found intracellularly, % of the total intracellular fluorescence","[4]; MCF7/6 cells, after 24 hours of incubation",approximately 40%
same,"intracellular levels of DNR in MCF7/6 tumor line, times as high as in MRC5 fibroblasts",[4]; after 24 hours of incubation,12 times
same,mortality,female NMRI mice [5],no mortality
same,time of death after injection,female NMRI mice [6],≤ 5 min
same,increase of mean weight,"female NMRI mice [6]; 30 mg/kg, in 40 days",~40%
same,time of death after injection,female NMRI mice [6]; 120 mg/kg,≤ 7 min
same,mice dying,female NMRI mice [6]; 120 mg/kg,5
same,mortality,female NMRI mice [6]; dose of 30 mg/kg,no mortality
same,mice dying,female NMRI mice [6],2
same,weight increase of the 3 surviving mice,female NMRI mice [6]; in 40 days,~30%
same,stability when incubated in human blood,[7],stable
same,times less cytotoxic than DNR,MRC5 fibroblast cells [8]; 72 hours,2230 times
same,IC50,MRC5 fibroblast cells [8]; [11],23.14 ± 4.81 mg/L
same,level of accumulation,"MRC5 fibroblast cells [9]; MRC5 cells, 10 μg eq. DNR/ml, 24 hours of incubation",~3.3 μg/mg of cellular proteins
same,"Intracellular concentration, DNR formed",MRC5 fibroblast cells [9]; [13],0.08 μg/mg cellular proteins
same,"Intracellular concentration, Leu-DNR formed",MRC5 fibroblast cells [9]; [13],3.1 μg/mg cellular proteins
same,"Intracellular concentration, Starting material",MRC5 fibroblast cells [9]; [13],0.03 μg/mg cellular proteins
same,"cell entry, times less than DNR",MRC5 fibroblast cells [9]; after 6 hours,300 times
same,mortality,"female NMRI mice [10]; total dose of 60 mg/kg, groups of 5",2 mice die on day 22 and a third on day 35
same,mortality,female NMRI mice [10]; total doses of between 10 and 45 mg/kg,no mortality
same,times less toxic than DNR (acute toxicity),female NMRI mice [10]; i.p. administration on 5 consecutive days,at least 30 times
same,LD50 (dose close to),"female NMRI mice [10]; i.p. on 5 consecutive days, total dose",~60 mg/kg
same,increase in mean weight,"female NMRI mice [10]; i.p., 45 mg/kg, over the next 30 days after 7 stable days",20%
same,day on which surviving mice recover their initial weight,"female NMRI mice [10]; i.p., total dose of 60 mg/kg",36 days
same,decrease of mean weight,"female NMRI mice [10]; i.p., total dose of 60 mg/kg, in 15 days",~15%
same,weight gain,"female NMRI mice [10]; i.p., total doses of between 10 and 45 mg/kg, in 40 days",+40%
